This assay deals with T1, AAK1 (GST-Xa-hAAK1) (Homo sapiens, UniProt Q2M2I8).
T1 construct: made in house
T1 sequence (Q2M2I8 whole entry): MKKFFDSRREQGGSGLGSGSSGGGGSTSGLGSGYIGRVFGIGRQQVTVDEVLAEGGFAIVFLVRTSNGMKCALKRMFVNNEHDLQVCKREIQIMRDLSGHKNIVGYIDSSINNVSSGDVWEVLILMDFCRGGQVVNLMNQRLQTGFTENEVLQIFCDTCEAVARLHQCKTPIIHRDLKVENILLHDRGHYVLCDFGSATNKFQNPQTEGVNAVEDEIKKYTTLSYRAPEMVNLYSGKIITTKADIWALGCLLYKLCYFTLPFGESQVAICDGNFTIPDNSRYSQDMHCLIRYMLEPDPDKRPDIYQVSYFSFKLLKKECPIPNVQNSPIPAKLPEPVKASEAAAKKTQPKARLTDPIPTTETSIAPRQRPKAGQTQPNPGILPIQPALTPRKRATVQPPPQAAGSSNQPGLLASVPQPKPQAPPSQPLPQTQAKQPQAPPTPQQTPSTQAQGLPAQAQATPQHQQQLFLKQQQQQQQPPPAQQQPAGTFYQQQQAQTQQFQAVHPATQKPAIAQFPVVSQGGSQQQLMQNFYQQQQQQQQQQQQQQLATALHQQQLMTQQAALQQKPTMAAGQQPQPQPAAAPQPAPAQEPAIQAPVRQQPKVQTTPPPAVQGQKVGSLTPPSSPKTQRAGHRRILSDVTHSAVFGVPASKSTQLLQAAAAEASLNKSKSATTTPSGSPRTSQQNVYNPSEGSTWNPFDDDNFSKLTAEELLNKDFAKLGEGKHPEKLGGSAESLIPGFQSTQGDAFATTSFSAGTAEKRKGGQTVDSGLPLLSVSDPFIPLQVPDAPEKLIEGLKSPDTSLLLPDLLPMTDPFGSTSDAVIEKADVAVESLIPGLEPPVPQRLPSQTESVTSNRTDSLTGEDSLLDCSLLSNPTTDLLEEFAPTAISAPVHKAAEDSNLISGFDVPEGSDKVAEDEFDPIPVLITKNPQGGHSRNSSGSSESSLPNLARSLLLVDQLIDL
The experiment in a line: AAK1 Kinase Assay (Caliper LabChip, fluoresceinated peptide substrate). It counts as biochemical. The conditions noted are these: AAK1 functional potency; class symbols; read-out: IC50 (nM), functional potency as IC50 ranges. As for the experimental part:
The assays were performed in U-bottom 384-well plates. The final assay volume was 30 μl prepared from 15 μl additions of enzyme and substrates (fluoresceinated peptide (5-FAM)-Aha-KEEQSQITSQVTGQIGWR-NH2 and ATP) and test compounds in assay buffer (10 mM Tris-HCL pH 7.4, 10 mM MgCl2, 0.01% Tween-20 and 1.0 mM DTT). The reactions were initiated by the combination of bacterially expressed, GST-Xa-hAAK1 with substrates and test compounds. The reactions were incubated at room temperature for 3 hours and terminated by adding 60 μl of 35 mM EDTA buffer to each sample. The reactions were analyzed on the Caliper LabChip 3000 (Caliper, Hopkinton, Mass.) by electrophoretic separation of the fluorescent substrate and phosphorylated product. Inhibition data were calculated by comparison to EDTA quenched control reactions for 100% inhibition and vehicle-only reactions for 0% inhibition. The final concentration of reagents in the assays are ATP, 22 μM; (5-FAM)-Aha-KEEQSQITSQVTGQIGWR-NH2, 1.5 μM; GST-Xa-hAAK1, 3.5 nM; and DMSO, 1.6%. Dose response curves were generated to determine the concentration required inhibiting 50% of kinase activity (IC50). Compounds were dissolved at 10 mM in dimethylsulfoxide (DMSO) and evaluated at eleven concentrations. IC50 values were derived by non-linear regression analysis.
What is called IC50 is the concentration that gives 50% inhibition. Regarding `CC(C)CC(N)c1ccc2cc(-c3ccnc4[nH]ccc34)ccc2n1` (centres unmarked) [Example 25, 1-(6-(1H-pyrrolo[2,3-b]pyridin-4-yl)quinolin-2-yl)-3-methylbutan-1-amine], the IC50 was in the range of 1 to 10 nM.

With `CC(C)CC(N)c1ccc2cc(-c3ccnc4ccccc34)ccc2n1` (centres unmarked) [Example 26, 1-([4,6′-biquinolin]-2′-yl)-3-methylbutan-1-amine], the IC50 fell in the range of 11 to 100 nM. Regarding `CC(C)CC(N)c1ccc2cc(-c3ccc4cnccc4c3)ccc2n1` (centres unmarked) [Example 27, 1-(6-(isoquinolin-6-yl)quinolin-2-yl)-3-methylbutan-1-amine], the IC50 was 101 to 2500 nM.

Regarding `CC(C)CC(N)c1ccc2cc(-c3ccnc(N(C)C)n3)ccc2n1` (centres unmarked) [Example 28, 4-(2-(1-amino-3-methylbutyl)quinolin-6-yl)-N,N-dimethylpyrimidin-2-amine], the IC50 lay within 11 to 100 nM. Regarding `CC(C)CC(N)c1ccc2cc(-c3ccnc(N)c3)ccc2n1` (centres unmarked) [Example 29, 4-(2-(1-amino-3-methylbutyl)quinolin-6-yl)pyridin-2-amine], the IC50 is 1 to 10 nM.

Take `CC(=O)Nc1cc(-c2ccc3nc(C(=O)CC(C)C)ccc3c2)ccn1` [Example 30, N-(4-(2-(3-methylbutanoyl)quinolin-6-yl)pyridin-2-yl)acetamide]: the half-inhibitory concentration (IC50) was 101 to 2500 nM. For `CC(C)CCc1cc(=S)c2cc(-c3ccncc3)ccc2[nH]1` [Example 31, 2-isopentyl-6-(pyridin-4-yl)quinoline-4(1H)-thione], the half-maximal inhibitory concentration (IC50) fell in the range of 11 to 100 nM. Then `CC(C)CC(OCC(F)(F)F)c1ccc2cc(-c3ccncc3)ccc2n1` (centres unmarked) [Example 32, 2-(3-methyl-1-(2,2,2-trifluoroethoxy)butyl)-6-(pyridin-4-yl)quinoline], with 101 to 2500 nM. For the compound `CC(C)CC(N)c1ccc2cc(-c3ccnc(NC(=O)c4cccc(F)c4)c3)ccc2n1` (centres unmarked) [Example 35, N-(4-(2-(1-amino-3-methylbutyl)quinolin-6-yl)pyridin-2-yl)-3-fluorobenzamide], the IC50 was 11 to 100 nM.

Take `CC(=O)Nc1cc(-c2ccc3nc(C(N)C4CCCCC4)ccc3c2)ccn1` (centres unmarked) [Example 36]: the half-inhibitory concentration (IC50) lay within 1 to 10 nM. As to `CC(C)CC(N)c1cc(-c2nnn[nH]2)c2cc(-c3ccncc3)ccc2n1` (centres unmarked) [Example 37, 3-methyl-1-(6-(pyridin-4-yl)-4-(1H-tetrazol-5-yl)quinolin-2-yl)butan-1-amine], the IC50 is 1 to 10 nM. Regarding `CC(C)CC(N)c1ccc2cc(-c3ccnc(NC4CC4)c3)ccc2n1` (centres unmarked) [Example 38, 4-(2-(1-amino-3-methylbutyl)quinolin-6-yl)-N-cyclopropylpyridin-2-amine], the 50% inhibitory concentration (IC50) was 11 to 100 nM. The value for `N#Cc1cc(C(N)C2CCCCC2)nc2ccc(-c3ccncc3)cc12` (centres unmarked) [Example 41, 2-(amino(cyclohexyl)methyl)-6-(pyridin-4-yl)quinoline-4-carbonitrile] was 101 to 2500 nM. As to `CC(C)CC(N)c1ccc2cc(-c3ccnc(NC(=O)c4ccc(C(F)(F)F)cc4)c3)ccc2n1` (centres unmarked) [Example 42, N-(4-(2-(1-amino-3-methylbutyl)quinolin-6-yl)pyridin-2-yl)-4-(trifluoromethyl)benzamide], the 50% inhibitory concentration (IC50) fell in the range of 11 to 100 nM. In the case of `CC(C)CC(N)c1cc(C#N)c2cc(-c3ccncc3)cc(F)c2n1` (centres unmarked) [Example 44, 2-(1-amino-3-methylbutyl)-8-fluoro-6-(pyridin-4-yl)quinoline-4-carbonitrile], the IC50 lay in the range of 11 to 100 nM. The value for `CC(=O)Nc1cc(-c2ccc3nc(C(O)CC(C)C)ccc3c2)ccn1` (centres unmarked) [Example 45, N-(4-(2-(1-hydroxy-3-methylbutyl)quinolin-6-yl)pyridin-2-yl)acetamide] was 11 to 100 nM; that for `CC(C)CC(N)c1ccc2cc(-c3ccnc(C4CC4)c3)ccc2n1` (centres unmarked) [Example 50, 1-(6-(2-cyclopropylpyridin-4-yl)quinolin-2-yl)-3-methylbutan-1-amine] was 101 to 2500 nM.

The record behind these values is patent publication US9932320B2 (BRISTOL-MYERS SQUIBB COMPANY, priority 2014, dated 2018).
